ChEMBL document CHEMBL1131595, “Chemoprotective properties of phenylpropenoids, bis(benzylidene)cycloalkanones, and related Michael reaction acceptors: correlation of potencies as phase 2 enzyme inducers and radical scavengers” (J Med Chem, 1998)

Test: Scavenging activity of compound (superoxide radicals generated by the oxidation of xanthine and xanthine oxidase),expressed as the percent quenching of luminescence of lucigenin at 50 nM concentration
`O=C1/C(=C/c2ccccc2)CCCC/C1=C\c1ccccc1` showed a Free radical scavenging of 11%.
With `O=C1/C(=C/c2ccccc2)CCC/C1=C\c1ccccc1` the Free radical scavenging was 11%.
For `COc1cc(/C=C2\CCC/C(=C\c3ccc(O)c(OC)c3)C2=O)ccc1O`, the Free radical scavenging was 30%.
Compound `O=C1/C(=C/c2ccccc2O)CCC/C1=C\c1ccccc1O` has a Free radical scavenging of 42%.
In the case of `COc1ccccc1/C=C1\CCC/C(=C\c2ccccc2OC)C1=O`, the Free radical scavenging is reported as 19%.
`O=C1/C(=C/c2ccccc2)CC/C1=C\c1ccccc1` gave a Free radical scavenging of 10%.
Compound `O=C1/C(=C/c2ccccc2O)CC/C1=C\c1ccccc1O` has a Free radical scavenging of 70%.
